biological target: T1, human GPR68 (Homo sapiens, UniProt Q15743); assay: GPR68 Biochemical Assay (Promega GloSensor cAMP assay, GPR68 antagonism); assay type: cell-based; settings: HEK293T cells transiently expressing hGPR68, antagonism of pH 5.5 stimulated cAMP, 15 min, read-out: hGPR68 IC50
T1 construct: encoding full-length human GPR68 (uniprot ID: Q15743); expressed in transfected cells; host or cells: HEK293T
Summary of the method: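 Readout is GloSensor cAMP luminescence after 15 min at room temperature, normalised between pH 5.5 stimulation and pH 8.0 minimum controls; IC50 fitted sigmoidally. Test compounds, up to 50 μM final (9-point half-log, 0.5% DMSO), were co-added with pH 5.5 buffer to HEK293T cells transiently expressing full-length human GPR68 plus GloSensor.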

T1 sequence (Q15743 whole entry): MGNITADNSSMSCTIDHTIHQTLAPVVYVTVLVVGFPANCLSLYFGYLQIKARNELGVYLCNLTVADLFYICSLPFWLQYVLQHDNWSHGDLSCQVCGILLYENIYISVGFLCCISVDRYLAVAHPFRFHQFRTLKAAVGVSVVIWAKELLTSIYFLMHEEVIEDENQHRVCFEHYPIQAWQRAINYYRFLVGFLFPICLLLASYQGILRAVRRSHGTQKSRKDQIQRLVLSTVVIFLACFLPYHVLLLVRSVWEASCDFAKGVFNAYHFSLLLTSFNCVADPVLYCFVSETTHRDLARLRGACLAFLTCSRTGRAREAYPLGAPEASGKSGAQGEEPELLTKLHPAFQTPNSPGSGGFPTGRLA

Row | SMILES | IC50
1 | NC(=O)c1cnn2c(C(=O)NC3Cc4cccc(-c5ccccn5)c4C3)ccnc12 (stereo not shown) [Compound 17, N7-[4-(2-pyridyl)indan-2-yl]pyrazolo[1,5-a]pyrimidine-3,7-dicarboxamide] | 50000 to 100000 nM
2 | COCc1nn2c(C(=O)N3CCN(c4ncccc4C(F)(F)F)CC3)ccnc2c1C(N)=O [Compound 89, 2-(methoxymethyl)-7-[4-[3-(trifluoromethyl)-2-pyridyl]piperazine-1-carbonyl]pyrazolo[1,5-a]pyrimidine-3-carboxamide] | 50000 to 100000 nM
3 | CNC(=O)c1c(COC)nn2c(C(=O)N[C@H]3C[C@@H](OC(F)(F)F)C3)ccnc12 [Compound 161, 2-(methoxymethyl)-N3-methyl-N7-[cis-3-(trifluoromethoxy)cyclobutyl]pyrazolo[1,5-a]pyrimidine-3,7-dicarboxamide] | 500 to 5000 nM
4 | COCc1nn2c(C(=O)NCc3ccccc3OC)ccnc2c1C(N)=O [Compound 199, 2-(methoxymethyl)-N7-[(2-methoxyphenyl)methyl]pyrazolo[1,5-a]pyrimidine-3,7-dicarboxamide] | 50 to 500 nM
5 | NC(=O)c1cnn2c(C(=O)NC3CC4(CCOCC4)C3)ccnc12 [Compound 12, N7-(7-oxaspiro[3.5]nonan-2-yl)pyrazolo[1,5-a]pyrimidine-3,7-dicarboxamide] | 50000 to 100000 nM
6 | COCc1nn2c(C(=O)Nc3ccc(CN(C)C)cc3)ccnc2c1C(N)=O [Compound 62, N7-[4-[(dimethylamino)methyl]phenyl]-2-(methoxymethyl)pyrazolo[1,5-a]pyrimidine-3,7-dicarboxamide] | 500 to 5000 nM
7 | NC(=O)c1c(OCC2CC2)nn2c(C(=O)N[C@H]3C[C@@H](OC(F)(F)F)C3)ccnc12 [Compound 162, 2-(cyclopropylmethoxy)-N7-[cis-3-(trifluoromethoxy)cyclobutyl]pyrazolo[1,5-a]pyrimidine-3,7-dicarboxamide] | 50 to 500 nM
8 | COCc1nn2c(C(=O)N3Cc4ccccc4C3)ccnc2c1C(N)=O [Compound 95, 7-(isoindoline-2-carbonyl)-2-(methoxymethyl)pyrazolo[1,5-a]pyrimidine-3-carboxamide] | 500 to 5000 nM
9 | CCC(CNC(=O)c1ccnc2c(C(N)=O)cnn12)Oc1cccc(C)c1 (stereo not shown) [Compound 96, N7-[2-(3-methylphenoxy)butyl]pyrazolo[1,5-a]pyrimidine-3,7-dicarboxamide] | 5000 to 50000 nM
10 | COCc1nn2c(C(=O)NC3CCc4cncn4C3)ccnc2c1C(N)=O (stereo not shown) [Compound 188, 2-(methoxymethyl)-N7-(5,6,7,8-tetrahydroimidazo[1,5-a]pyridin-6-yl)pyrazolo[1,5-a]pyrimidine-3,7-dicarboxamide] | 500 to 5000 nM

Next, values leading:

Row | IC50 | SMILES
11 | 50 to 500 nM | COCc1nn2c(C(=O)N[C@H]3C[C@H](C)C3)ccnc2c1C(N)=O [Compound 86, 2-(methoxymethyl)-N7-(trans-3-methylcyclobutyl)pyrazolo[1,5-a]pyrimidine-3,7-dicarboxamide]
12 | 50 to 500 nM | COCc1nn2c(C(=O)NC3CCS(=O)(=O)c4ccccc43)cc(C)nc2c1C(N)=O (stereo not shown) [Compound 241, N7-(1,1-dioxo-3,4-dihydro-2H-thiochromen-4-yl)-2-(methoxymethyl)-5-methyl-pyrazolo[1,5-a]pyrimidine-3,7-dicarboxamide]
13 | < 50 nM | COCc1nc2c(C(=O)NC3Cc4cscc4C3)ccnn2c1C(N)=O [Compound 105, N8-(5,6-dihydro-4H-cyclopenta[c]thiophen-5-yl)-2-(methoxymethyl)imidazo[1,2-b]pyridazine-3,8-dicarboxamide]
14 | < 50 nM | COCc1nn2c(C(=O)NC3Cc4ccncc4C3)ccnc2c1C(N)=O (stereo not shown) [Compound 170, N7-(6,7-dihydro-5H-cyclopenta[c]pyridin-6-yl)-2-(methoxymethyl)pyrazolo[1,5-a]pyrimidine-3,7-dicarboxamide]
15 | < 50 nM | NC(=O)c1c(COC2CC2)nn2c(C(=O)N[C@H]3C[C@@H](OC(F)(F)F)C3)ccnc12 [Compound 216, 2-(cyclopropoxymethyl)-N7-[cis-3-(trifluoromethoxy)cyclobutyl]pyrazolo[1,5-a]pyrimidine-3,7-dicarboxamide]
16 | < 50 nM | COCc1nn2c(C(=O)N[C@H]3COc4c(Cl)cccc43)ccnc2c1C(N)=O [Compound 169, N7-[(3R)-7-chloro-2,3-dihydrobenzofuran-3-yl]-2-(methoxymethyl)pyrazolo[1,5-a]pyrimidine-3,7-dicarboxamide]
17 | < 50 nM | COCc1nn2c(C(=O)NC3Cc4cc(F)c(F)cc4C3)ccnc2c1C(N)=O [Compound 195, N7-(5,6-difluoroindan-2-yl)-2-(methoxymethyl)pyrazolo[1,5-a]pyrimidine-3,7-dicarboxamide]
18 | < 50 nM | NC(=O)c1c(C2CC2)nc2c(C(=O)NC3CC(F)(F)c4ccccc43)ccnn12 (stereo not shown) [Compound 209, 2-cyclopropyl-N8-(3,3-difluoroindan-1-yl)imidazo[1,2-b]pyridazine-3,8-dicarboxamide]
19 | < 50 nM | COCc1nn2c(C(=O)NCC3CCC(F)(F)CC3)ccnc2c1C(N)=O [Compound 133, N7-[(4,4-difluorocyclohexyl)methyl]-2-(methoxymethyl)pyrazolo[1,5-a]pyrimidine-3,7-dicarboxamide]
20 | < 50 nM | COCc1nn2c(C(=O)NC3Cc4cc(F)cc(F)c4C3)ccnc2c1C(N)=O (stereo not shown) [Compound 92, N7-(4,6-difluoroindan-2-yl)-2-(methoxymethyl)pyrazolo[1,5-a]pyrimidine-3,7-dicarboxamide]
21 | < 50 nM | COCc1nn2c(C(=O)NC3COc4ccc(Br)cc4C3)ccnc2c1C(N)=O (stereo not shown) [Compound 144, N7-(6-bromochroman-3-yl)-2-(methoxymethyl)pyrazolo[1,5-a]pyrimidine-3,7-dicarboxamide]
22 | < 50 nM | COCc1nn2c(C(=O)NC3CCC(F)(F)c4cc(F)ccc43)ccnc2c1C(N)=O (stereo not shown) [Compound 239, 2-(methoxymethyl)-N7-(4,4,6-trifluorotetralin-1-yl)pyrazolo[1,5-a]pyrimidine-3,7-dicarboxamide]
23 | < 50 nM | COCc1nn2c(C(=O)NC3CC(F)(F)c4ccccc43)cc(C)nc2c1C(N)=O (stereo not shown) [Compound 232, N7-(3,3-difluoroindan-1-yl)-2-(methoxymethyl)-5-methyl-pyrazolo[1,5-a]pyrimidine-3,7-dicarboxamide]
24 | < 50 nM | COCc1nn2c(C(=S)NC3Cc4ccccc4C3)ccnc2c1C(N)=O [Compound 148, 7-(indan-2-ylcarbamothioyl)-2-(methoxymethyl)pyrazolo[1,5-a]pyrimidine-3-carboxamide]

same assay, conditions: hGPR68 IC50, HEK293T cells transiently expressing hGPR68, antagonism of pH 5.5 stimulated cAMP, 15 min

Row | IC50 | SMILES
25 | 500 to 5000 nM | COc1cc(C(=O)NC2CC(F)(F)C2)n2nc(C)c(C(N)=O)c2n1 [Compound 41, N7-(3,3-difluorocyclobutyl)-5-methoxy-2-methyl-pyrazolo[1,5-a]pyrimidine-3,7-dicarboxamide]
26 | 50 to 500 nM | NC(=O)c1c(C2CC2)nn2c(C(=O)NC3CCC(F)(F)CC3)cnnc12 [Compound 156, 7-cyclopropyl-N4-(4,4-difluorocyclohexyl)pyrazolo[5,1-c][1,2,4]triazine-4,8-dicarboxamide]
27 | < 50 nM | NC(=O)c1c(-c2ncco2)nn2c(C(=O)NC3Cc4ccccc4C3)ccnc12 [Compound 33, N7-indan-2-yl-2-oxazol-2-yl-pyrazolo[1,5-a]pyrimidine-3,7-dicarboxamide]
28 | 5000 to 50000 nM | Cc1cnc2c(C(N)=O)c(C)nn2c1C(=O)NC1CC(F)(F)C1 [Compound 38, N7-(3,3-difluorocyclobutyl)-2,6-dimethyl-pyrazolo[1,5-a]pyrimidine-3,7-dicarboxamide]

From US20260308159A1, “BICYCLIC HETEROARYLAMIDES HAVING GPR68 MODULATING ACTIVITY” (RECURSION PHARMACEUTICALS, INC., priority 2023, published 2026)
